Assay results as given in PubChem BioAssay AID2253 (Southern Research Specialized Biocontainment Screening …, 2010).

These compounds were tested on THP-1 viability, CellTiter-Glo luminescence, 72 h (assay: THP-1 cell cytotoxicity, dose response, cytotoxicity control for Salmonella PhoP regulon inhibitors, S. typhimurium screen hits (AID 2253)).
`S=C(NN=C1C2CC3CC(C2)CC1C3)Nc1ccccc1` gave an EC50 of 30.4 µM.
`Cc1ccc(-c2cc(-c3ccc(Cl)cc3)c(C#N)c(N)n2)o1` showed an EC50 of 26.2 µM.
Compound `O=C1c2ccccc2C2=Nc3ccccc3SC(c3cccc(F)c3)C12` (centres undefined) has an EC50 of 8.95 µM.
In the case of `Cc1ccccc1-n1nnnc1Sc1nnnn1-c1ccccc1`, the EC50 is reported as 12 µM.
With `S=C(Nc1ccccc1)Nc1nc2ccccc2n1CCOc1ccc(Cl)cc1` the EC50 was 15 µM.
Compound `COc1ccc(/C=C/c2nc3ccccc3n2Cc2ccccc2OC)cc1` has an EC50 of 13.2 µM.
Work on `CN(C)c1ccc([C@@H]2[C@@H]([N+](=O)[O-])[C@H]3C=Cc4ccccc4N3[C@H]2C(=O)c2ccc(Cl)cc2)cc1` yielded an EC50 of 20.6 µM.
With `CCCCCCCSc1cc(OC)c(CCNC)cc1OC` the EC50 was 6.34 µM.
`C/C(=N\Nc1nc2ccccc2[nH]1)c1ccc(Cl)s1` gave an EC50 of 32.6 µM.
Work on `O=C(C[n+]1cc(-c2ccccc2)n2c1CCCCC2)c1ccc(Cl)cc1` yielded an EC50 of 28.9 µM.
Compound `O=C(NCc1ccco1)c1cccc(Nc2nc3ccc(Br)cc3[nH]2)c1` has an EC50 of 44.6 µM.
`Cc1nnc(N/N=C/c2ccccn2)[nH]c1=O` was tested, and the EC50 was 0.81 µM.
Work on `COc1ccc(Nc2cc(C)c3c(O)cccc3n2)cc1` yielded an EC50 of 15 µM.
For `Cc1ccccc1NC(=O)CCC(=O)N/N=C/c1cc([N+](=O)[O-])ccc1O`, the EC50 was 19.5 µM.
Work on `O=C(c1cccs1)c1no[n+]([O-])c1C(=O)c1cccs1` yielded an EC50 of 2.61 µM.
In the case of `Cc1cc(C)nc(/N=C(\N)Nc2ccc(SC(F)F)cc2)n1`, the EC50 is reported as 13.1 µM.
`CNc1nc(NCc2ccccc2)c2ccccc2n1` was tested, and the EC50 was 10 µM.
`Cc1ccc(C(=O)N/N=C/c2cc(Br)ccc2O)cn1` showed an EC50 of 1.78 µM.
`CCc1nn2cc(C(=O)c3cc(Cl)ccc3O)cnc2c1-c1ccc(F)cc1` gave an EC50 of 38.3 µM.
`COc1ccc(OC)c(/C=N/NC(=O)c2cc3c(OC)c(OC)ccc3[nH]2)c1` gave an EC50 of 43.8 µM.
With `O=S1(=O)Nc2c(ccc3cccnc23)-c2ccccc21` the EC50 was 0.69 µM.
`O=C(Nc1nc(-c2ccccn2)cs1)c1ccc(Cl)s1` was tested, and the EC50 was 0.8 µM.
With `CCCNC1=C(C)C(=O)C2=C(C1=O)C(COC(N)=O)[C@]1(OC)C3NC3CN21` (some centres undefined) the EC50 was 10.1 µM.
For `O=c1[nH][nH]c(-c2ccccc2O)c1C(C[N+](=O)[O-])c1cccc(Cl)c1` (centres undefined), the EC50 was 33.4 µM.
Compound `O=c1[nH][nH]c(-c2ccccc2O)c1C(C[N+](=O)[O-])c1ccc(Br)cc1` (centres undefined) has an EC50 of 16 µM.
In the case of `CCCCCCCNC(=O)C1(CC2CC(c3ccc(Cl)cc3)=NO2)CCNCC1` (centres undefined), the EC50 is reported as 5.66 µM.
`c1ccc2c(C3=NNC(=NC4CC4)SC3)c[nH]c2c1` gave an EC50 of 17.2 µM.
Compound `c1cnc2c(c1)ccc1cccnc12` has an EC50 of 3.8 µM.
Work on `Oc1ccc(CN2CCN(Cc3ccccc3)CC2)c2cccnc12` yielded an EC50 of 12.9 µM.
Compound `C#CCn1cc(/C=N/Nc2nc3ccccc3[nH]2)c2ccccc21` has an EC50 of 6.14 µM.
`Cc1ccccc1OCc1n(CC(=O)OC2CC(C)CCC2C(C)C)c2ccccc2[n+]1C` (centres undefined) gave an EC50 of 2 µM.
`Cc1ccc(SC(c2ccc(C)cc2)C(Cn2cncn2)C(=O)c2ccccc2)cc1` (centres undefined) showed an EC50 of 49.8 µM.
`CCCC(=O)NC(c1ccccc1)c1ccc2cccnc2c1O` (centres undefined) gave an EC50 of 0.59 µM.
Compound `CCCCCCCCCCCCCCCC[N+](C)(C)C` has an EC50 of 0.79 µM.
`O=C(Nc1nc2cc3c(cc2s1)OCO3)C1=COCCO1` showed an EC50 of 6.67 µM.
With `Cc1ccc(NC(=O)NCC2CCN(Cc3cccc(Cl)c3)CC2)cc1Cl` the EC50 was 13.9 µM.
Compound `c1csc(C2Nc3ccccc3-c3nc4ccccc4n32)c1` (centres undefined) has an EC50 of 33.7 µM.
Compound `O=C(Nc1cccc(N=Cc2cc(Br)cc(Br)c2O)c1)c1ccco1` has an EC50 of 38.5 µM.
In the case of `NC1=NC[C@@H](Cc2ccc(O)cc2)N1CCCCC1CCCCC1`, the EC50 is reported as 5.45 µM.
`CCCCCCCCCC[N+](C)(C)CC/C=C1/c2ccccc2Sc2ccc(Cl)cc21` gave an EC50 of 1.67 µM.
Work on `Cc1[nH]c2ccccc2c1/C=N/Nc1ccc(F)cc1F` yielded an EC50 of 48.5 µM.
For `O=Cc1ccc(O)c2ncccc12`, the EC50 was 3.79 µM.
`COc1ccc(Nc2nc(-c3c[nH]c4ccccc34)cs2)cc1` was tested, and the EC50 was 15.6 µM.
`CCN1CCN(C(c2ccc(C(F)(F)F)cc2)c2ccc3cccnc3c2O)CC1` (centres undefined) showed an EC50 of 1.78 µM.
`CCCCC(CC)CN=C(N)NC(N)=NCCCCCCN=C(N)NC(N)=NCC(CC)CCCC` (centres undefined) gave an EC50 of 1.9 µM.
With `Oc1ccc(C=Nc2cccc3ncccc23)c(O)c1` the EC50 was 43.3 µM.
In the case of `CC(C(=O)c1ccc(-c2ccccc2)cc1)[n+]1cccc(NC(=O)c2ccccc2)c1` (centres undefined), the EC50 is reported as 19.6 µM.
For `CC1(C)CC(=O)C2=C(C1)N(c1ccc(F)cc1)C(N)=C(C#N)C2c1cccs1` (centres undefined), the EC50 was 35.6 µM.
Compound `Clc1ccc(Nc2ccc(NCc3ccccc3)nn2)cc1` has an EC50 of 21.3 µM.
For `Cc1ccc(O)c(-c2cc(-c3cccc(F)c3)n[nH]2)c1`, the EC50 was 18.2 µM.
`Cc1nc([N+](=O)[O-])c(Br)n1CC(=O)c1ccccc1` was tested, and the EC50 was 17.7 µM.
Work on `O=C(N/N=C/c1cc([N+](=O)[O-])ccc1O)c1ccncc1` yielded an EC50 of 15.1 µM.
In the case of `O=S(=O)(Nc1cc(Sc2cccc3cccnc23)c(O)c2ccccc12)c1ccc(F)cc1`, the EC50 is reported as 2.82 µM.
In the case of `Cc1ccc(Nc2cc(C)c3c(O)cccc3n2)cc1C`, the EC50 is reported as 15.2 µM.
`CC1CCN(c2ccc(NC(=S)NC(=O)c3ccc(-c4cccc([N+](=O)[O-])c4)o3)cc2)CC1` was tested, and the EC50 was 23.1 µM.
Work on `C#CCN1C(=O)C(O)(CC(=O)c2ccc(OC)c(OC)c2)c2ccccc21` (centres undefined) yielded an EC50 of 30.5 µM.
`CCOc1cc(/C=C2/NC(=O)N(CC(=O)Nc3cccc(C)c3)C2=O)ccc1OC` showed an EC50 of 30.8 µM.
For `O=C(c1ccco1)[C@@H]1[C@@H]2C(=O)N(c3ccc(F)cc3)C(=O)[C@@H]2[C@H]2C=Cc3ccccc3N21`, the EC50 was 23.5 µM.
Work on `O=C(N/N=C/c1cn(-c2ccccc2)nc1-c1ccc(F)cc1)c1ccc2c(c1)OCO2` yielded an EC50 of 35 µM.
